The nature of experiment [1]: Inhibition of Plasmodium falciparum recombinant falcipain-3.
Experiment [2] relates to Plasmodium falciparum. Briefly: Antimalarial activity against Plasmodium falciparum 3D7 infected in human erythrocytes after 4 hrs. The format is functional, organism-based. The settings on record: 3D7, 4 h.
The nature of experiment [3]: Inhibition of Plasmodium falciparum recombinant falcipain-2.

By IC50 is commonly meant the concentration at which inhibition is half-maximal.

*1 amine or outer side, *2 acyl side, *3 side chain or, on linkers, in order; H or OH if unused. Where a SMILES comes first, the peptide text is derived from it. [ ]: non-standard residue; d: D form. The star is where a group is joined. hPhe = N[C@@H](CCc1ccccc1)C(=O)O; Morpholide = C1CN(*)CCO1; Cbz = O=C(OCc1ccccc1)*; CO = O=C([*:1])[*:2] Some results are limits rather than exact numbers.

As to `COCC(=O)[C@H](CCc1ccccc1)NC(=O)[C@H](CC(C)C)NC(=O)OCc1ccccc1`, the 50% inhibitory concentration (IC50) was 5.6 µM in experiment [1], over 10 µM in experiment [2] and 7.15 µM in experiment [3].

Regarding `COCC(=O)[C@H](Cc1ccccc1)NC(=O)[C@H](CC(C)C)NC(=O)OCc1ccccc1`, the half-inhibitory concentration (IC50) in experiment [1] was 8.61 µM; in experiment [2], over 10 µM; in experiment [3] it was 1.97 µM.

In the case of `CCOCC(=O)[C@H](Cc1ccccc1)NC(=O)[C@H](CC(C)C)NC(=O)OCc1ccccc1`, the results for the IC50 in experiment [1], in experiment [2] and in experiment [3] were 21.6 µM, over 10 µM and 1.96 µM, respectively.

Regarding `CC(C)C[C@H](NC(=O)OCc1ccccc1)C(=O)N[C@@H](CCc1ccccc1)C(=O)COc1ccccc1`, the results for the half-maximal inhibitory concentration (IC50) in experiment [1], in experiment [2] and in experiment [3] were 0.222 µM, 0.31 µM and 0.438 µM, respectively.

With `CC(C)C[C@H](NC(=O)OCc1ccccc1)C(=O)N[C@@H](CCc1ccccc1)[C@H]1OOC2(O1)C1CC3CC(C1)CC2C3` (stereo partly drawn), the IC50 in experiment [1] came out at 0.947 µM; in experiment [2], 0.0555 µM; in experiment [3] it was 0.425 µM.

For `COC[C@@]1([C@H](CCc2ccccc2)NC(=O)[C@H](CC(C)C)NC(=O)OCc2ccccc2)OOC2(O1)C1CC3CC(C1)CC2C3` (stereo partly drawn), the IC50 in experiment [1] was under 19.8 µM; in experiment [2], 0.582 µM; in experiment [3], under 11.5 µM.

Take `COC[C@@]1([C@@H](NC(=O)[C@H](CC(C)C)NC(=O)OCc2ccccc2)c2ccccc2)OOC2(O1)C1CC3CC(C1)CC2C3` (stereo partly drawn): the IC50 in experiment [1] was determined as 44.2 µM; in experiment [2], 2.56 µM; in experiment [3], 1.2 µM.

Take `CCOC[C@@]1([C@H](CCc2ccccc2)NC(=O)[C@H](CC(C)C)NC(=O)OCc2ccccc2)OOC2(O1)C1CC3CC(C1)CC2C3` (stereo partly drawn): the 50% inhibitory concentration (IC50) is under 24.2 µM in experiment [1], 0.572 µM in experiment [2] and under 8.67 µM in experiment [3].

Take `CCOC[C@@]1([C@@H](NC(=O)[C@H](CC(C)C)NC(=O)OCc2ccccc2)c2ccccc2)OOC2(O1)C1CC3CC(C1)CC2C3` (stereo partly drawn): the concentration for half-maximal inhibition (IC50) in experiment [1] was over 25 µM; in experiment [3], under 8.58 µM.

Regarding `CC(C)C[C@@H](C(=O)N[C@@H](CCc1ccccc1)[C@H]1OOC2(O1)C1CC3CC(C1)CC2C3)N1CCOCC1` (stereo partly drawn), the half-maximal inhibitory concentration (IC50) in experiment [1] was found to be 0.332 µM; in experiment [2], 0.0353 µM; in experiment [3], 0.51 µM.

`CCOCC(=O)[C@H](CCc1ccccc1)NC(=O)[C@H](CC(C)C)NC(=O)OCc1ccccc1`: the half-inhibitory concentration (IC50) in experiment [1] is 0.853 µM; in experiment [2], over 10 µM; in experiment [3], 2.05 µM.

Consider `CC(C)C[C@H](NC(=O)OCc1ccccc1)C(=O)N[C@H](C=O)CCc1ccccc1` (Cbz-Leu-[hPhe]-aldehyde), for which the IC50 in experiment [1] amounted to 0.199 µM; in experiment [2] it was 0.0271 µM; in experiment [3], 0.0014 µM.

Turning to `CC(C)C[C@H](NC(=O)N1CCOCC1)C(=O)N[C@H](C=O)CCc1ccccc1` ({Morpholide-CO}-Leu-[hPhe]-aldehyde), the figures for the 50% inhibitory concentration (IC50) in experiment [1], in experiment [2] and in experiment [3] were 0.215 µM, 0.0093 µM and 0.0163 µM, respectively.
